# Reference: patent EP1277738B1, “CONDENSED HETEROARYL DERIVATIVES” (Astellas Pharma Inc., priority 2000, dated 2001)
# Target: PI3K (p110α subtype) (Bos taurus, UniProt P32871)
# Assay: Inhibition of PI3K (p110α subtype)
# Type: biochemical
# Conditions: bovine p110α from baculovirus expression system; PI substrate, [γ-32P] ATP, 37°C for 15 minutes
# Experimental: Test Example 1 Inhibition of PI3K (p110α subtype)
# Inhibition was determined using enzyme (bovine p110α) prepared in the baculovirus expression system. Bovine p110 was prepared according to a modification from the method by I. Hiles et al., Cell, 70, 419 (1992). Each compound to be assayed was dissolved in DMSO and the obtained 10 mM DMSO solution was serially diluted with DMSO.
# The compound (0.5µl) to be assayed and enzyme were mixed in 25µl of buffer solution (40 mM Tris-HCl (pH 7.4), 200 mM NaCl, 2 mM dithiothreitol, 5 mM MgCl2). Then, 25µl of 5 mM Tris-HCl (pH 7.4) buffered solution supplemented with 10µg PI (Sigma), 2µ Ci [γ-^32P] ATP (Amersham Pharmacia) and 80µM nonradiolabeled ATP (Sigma) was added to the mixture to initiate the reaction. After reacting at 37°C for 15 minutes, 200µl of 1M HCl and 400µl of CHCl3 / MeOH (1 : 1) were added to the reaction mixture. The resulting mixture was stirred and then centrifuged. After the organic layer was again extracted twice with 150µl of MeOH / 1M HCl (1 : 1). The radioactivity was measured using Cerenkov light.
# Sequence of PI3K (p110α subtype) (P32871 whole entry): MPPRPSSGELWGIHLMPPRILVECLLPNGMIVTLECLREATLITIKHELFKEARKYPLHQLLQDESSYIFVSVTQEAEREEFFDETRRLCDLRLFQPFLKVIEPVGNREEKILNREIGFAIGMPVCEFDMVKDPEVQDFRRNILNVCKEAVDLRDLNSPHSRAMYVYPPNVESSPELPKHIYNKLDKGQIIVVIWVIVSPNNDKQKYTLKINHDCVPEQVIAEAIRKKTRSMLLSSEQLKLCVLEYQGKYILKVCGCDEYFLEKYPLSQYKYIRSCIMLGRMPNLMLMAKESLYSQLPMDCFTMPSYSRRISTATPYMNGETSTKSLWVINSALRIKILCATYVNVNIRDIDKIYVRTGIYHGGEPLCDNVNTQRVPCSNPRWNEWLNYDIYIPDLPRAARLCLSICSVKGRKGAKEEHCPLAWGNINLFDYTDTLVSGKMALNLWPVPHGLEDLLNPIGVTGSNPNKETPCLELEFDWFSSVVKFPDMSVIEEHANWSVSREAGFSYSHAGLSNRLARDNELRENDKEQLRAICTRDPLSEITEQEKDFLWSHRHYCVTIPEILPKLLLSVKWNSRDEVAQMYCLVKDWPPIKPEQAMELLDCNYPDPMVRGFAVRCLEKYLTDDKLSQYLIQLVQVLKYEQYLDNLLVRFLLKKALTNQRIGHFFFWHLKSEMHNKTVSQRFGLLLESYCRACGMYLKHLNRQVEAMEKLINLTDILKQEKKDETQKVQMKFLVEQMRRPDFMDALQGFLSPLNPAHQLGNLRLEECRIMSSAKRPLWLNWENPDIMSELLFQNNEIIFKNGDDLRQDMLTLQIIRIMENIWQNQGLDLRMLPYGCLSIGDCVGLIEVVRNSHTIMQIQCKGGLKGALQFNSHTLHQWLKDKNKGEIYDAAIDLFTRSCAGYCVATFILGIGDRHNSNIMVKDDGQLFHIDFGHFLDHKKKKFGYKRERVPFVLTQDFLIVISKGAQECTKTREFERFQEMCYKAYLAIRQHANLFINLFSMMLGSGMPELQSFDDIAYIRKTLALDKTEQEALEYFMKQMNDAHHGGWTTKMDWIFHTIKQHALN
row,IC50 [µM],Structure (SMILES)
1,< 1,O=C(Nc1cccc(-c2nc(N3CCOCC3)c3oc4ncccc4c3n2)c1)c1ccccn1 [Co 10]
2,< 1,CC(=O)Nc1cccc(-c2nc(N3CCOCC3)c3oc4ncccc4c3n2)c1 [Co 24]

row,Structure (SMILES),IC50 [µM]
1,"Nc1ccc(C(=O)Nc2cccc(-c3nc(N4CCOCC4)c4oc5ncccc5c4n3)c2)cn1 [Co 17, 6-amino-3'-.(4-morpholinopyrido[3',2':4,5]furo[3,2-d]pyrimidin-2-yl)nicotinanilide]",< 1

# Tested on: HCT116 cells
# Assay: Colon cancer cell growth inhibition (Alamar Blue)
# Type: cell-based
# Conditions: HCT116 colon cancer cell line, incubation over 72 hours; result in words
# Experimental: Test Example 2 Colon cancer cell growth inhibition
# HCT116 cells from a colon cancer cell line were cultured in McCoy's 5A medium (GIBCO) supplemented with 10% fetal bovine serum. HCT116 cells were inoculated on a 96 well plate (5000 cells/well) followed by overnight incubation. The test compound diluted with the medium was added to the medium in a final concentration of […] (final DMSO concentration, 1%). After incubation over 72 hours, Alamar Blue reagent was added to the medium. Two hours after the addition, a ratio of fluorescent intensity at an excitation wavelength of 530 nm to that at an emission wavelength of 590 nm was measured to determine the IC50. Co 14, Co 24, Co 25, Co 31, Co 46 and Co 47 of the present invention exerted an excellent cancer cell growth inhibition activity.
row,Structure (SMILES),cancer cell growth inhibition activity
1,CC(=O)Nc1cccc(-c2nc(N3CCOCC3)c3oc4ncccc4c3n2)c1 [Co 24],excellent

# Tested on: A375 cells
# Assay: Melanoma cell growth inhibition (Alamar Blue)
# Type: cell-based
# Conditions: Homo sapiens, A-375, 46 h
# Experimental: A375 cells from a melanoma cell line were cultured in DMEM medium (GIBCO) supplemented with 10% fetal bovine serum. A375 cells at 10,000 cells/100µl were added to a 96 well plate which contained 1µl/well of the test compounds (final concentration of 0.001 - 30µM). After incubation for over 46 hours, Alamar Blue reagent was added to the medium (10µl/well).
row,Structure (SMILES),IC50 [µM]
1,"Oc1cccc(-c2nc(N3CCOCC3)c3oc4ncccc4c3n2)c1 [Co 50, 3-(4-morpholinopyrido[3',2':4,5]furo[3,2-d]pyrimidin-2-yl)phenol]",0.33 to 4.26

# Same assay, conditions: Homo sapiens, A-375; A375 melanoma cell line, incubation for over 46 hours, 0.001 - 30µM; range is stated for the group of ten compounds; read-out: IC50
row,Structure (SMILES),IC50 [µM]
1,"Oc1cccc(-c2nc(N3CCOCC3)c3ncccc3n2)c1 [Co 172, 3-(4-morpholinopyrido[3,2-d]pyrimidin-2-yl)phenol]",0.33 to 4.26
2,"Oc1cccc(-c2nc(N3CCOCC3)c3ccncc3n2)c1 [Co 174, 3-(4-morpholinopyrido[3,4-d]pyrimidin-2-yl)phenol]",0.33 to 4.26
3,"Oc1cccc(-c2nc(N3CCOCC3)c3nccnc3n2)c1 [Co 191, 3-(4-morpholinopteridin-2-yl)phenol]",0.33 to 4.26
4,"COc1ccc2nc(-c3cccc(O)c3)nc(N3CCOCC3)c2c1 [Co 186, 3-(6-methoxy-4-morpholinoquinazolin-2-yl)phenol]",0.33 to 4.26
5,"Oc1cccc(-c2nc(N3CCOCC3)c3sccc3n2)c1 [Co 190, 3-(4-morpholinothieno[3,2-d]pyrimidin-2-yl)phenol]",0.33 to 4.26
6,"Oc1cccc(-c2nc(N3CCOCC3)c3cnccc3n2)c1 [Co 164, 3-(4-morpholinopyrido[4,3-d]pyrimidin-2-yl)phenol]",0.33 to 4.26

# Results, then the molecule that gave them:
row,IC50 [µM],Structure (SMILES)
1,0.33 to 4.26,"c1cc(OCCN2CCNCC2)cc(-c2nc(N3CCOCC3)c3oc4ncccc4c3n2)c1 [Co 69, 4-morpholino-2-[3-(2-piperazin-1-ylethoxy)phenyl]pyrido[3',2':4,5]furo[3,2-d]pyrimidine]"
2,0.33 to 4.26,"Nc1ccc(-c2nc(N3CCOCC3)c3oc4ncccc4c3n2)cc1 [Co 33, 4-(4-morpholinopyrido[3',2':4,5]furo[3,2-d]pyrimidin-2-yl)aniline]"
